According to article PMC6896172, “Successful Targeting of the Warburg Effect in Prostate Cancer by Glucose-Conjugated 1,4-Naphthoquinones” (Cancers, 2019):

System: 22Rv1 cells
Assay: Colony formation assay
Format: cell-based, human
Conditions: 22Rv1 cells treated with non-cytotoxic concentrations for 48 h
Experimental: Colony formation assays were performed as described before. In brief, cells were treated with the drugs for 48 h and then 100 alive cells were plated into each well of 6-well plates and incubated for 10 days. Surviving colonies were fixed, stained with Giemsa solution and counted.

CC1(C)OC2OC(C(O)COC3=CC(=O)c4cccc(O)c4C3=O)C(O)C2O1 (stereo not shown) [Compound 11]
cancer cell colony formation: suppress cancer cell colony formation
